Data taken from patent US20160251403A1, “PEPTIDE COMBINATIONS AND USES THEREOF IN TREATING DUST MITE ALLERGY” (ALK-ABELLO A/S, priority 2013, published 2016).
No end group written: not given here.

Experiments:
DRB1_1201 = DRB1_1201 (Homo sapiens, UniProt P01903+P01911, A100R/A169T/D57E/D86V/F55L/H45Y/K41T/L162R/M171V/P40S/Q125H/Q178H/Q39Y/Q99D/R42G/S66L/T262R/V114A/V67L/W38E/Y59H/Y61H/Y89S); experiment: Competitive MHC class II binding assay, DRB1_1201
DRB1_0301 = DRB1_0301 (Homo sapiens, UniProt P01903+P01911, A100K/A102G/A103R/A169T/F55Y/I96L/K41T/L162R/M171V/P40S/Q125H/Q178H/Q39Y/R42S/S66N/T106N/T262R/W38E/Y61H); experiment: Competitive MHC class II binding assay, DRB1_0301
DPA10201-DPB11401 = experiment: Competitive MHC class II binding assay, DPA10201-DPB11401; conditions: read-out: HLA-DPA10201-DPB11401; positive binding at cutoff 1000 nM

CC[C@H](C)[C@H](NC(=O)CNC(=O)[C@@H](NC(=O)[C@@H](NC(=O)[C@@H](NC(=O)[C@H](C)NC(=O)[C@@H](NC(=O)[C@H](C)NC(=O)[C@H](CO)NC(=O)[C@H](Cc1c[nH]cn1)NC(=O)[C@@H](NC(=O)[C@H](CCC(N)=O)NC(=O)[C@H](C)NC(=O)[C@H](CC(C)C)NC(=O)[C@H](C)NC(=O)[C@H](CCC(=O)O)NC(=O)[C@@H](N)CCCNC(=N)N)[C@@H](C)O)[C@@H](C)CC)C(C)C)[C@@H](C)CC)[C@@H](C)CC)C(=O)N[C@@H](CCCCN)C(=O)N[C@@H](CC(=O)O)C(=O)N[C@@H](CC(C)C)C(=O)N[C@@H](CC(=O)O)C(=O)N[C@@H](C)C(=O)O [pep-130]
IC50 (DRB1_1201): < 1000 nM

LVGDNGVLASAIATHAKIRD [pep-110]
IC50 (DRB1_0301): < 1000 nM | IC50 (DPA10201-DPB11401): < 1000 nM
